Results from patent US20250026741A1, “INHIBITORS OF THE ONCOGENIC SHP2 PHOSPHATASE AND USES THEREOF” (Sanford Burnham Prebys Medical Discovery Institute, priority 2021, published 2025).
Read-outs that look alike come from different tables or passages of the source.

Experiments:
[1] = tested on: KYSE-520 esophageal cancer cells; assay: Cell viability assay (CellTiter-Glo), KYSE-520; assay type: cell-based; conditions: KYSE-520 cells, various concentrations, 3 d
Text: (§1) Inhibition of SHP2 has been reported to inhibit the growth of cancer cells including Kasumi-1 acute myeloid leukemia (AML) and KYSE-520 esophageal cancer cells. […] Cell viability is shown as a percentage of the vehicle (DMSO) control and represents the mean±SD. B) #02 dose-response curves in cell viability assays using Kasumi-1, KYSE-520, MOLM-13, and […] cells after 3 d in culture. The percentages compared to DMSO vehicle control were curve fitted using nonlinear regression (log[inhibitor] vs. normalized response, variable slope) and represent the mean±SD. C) Cell viability of […] and MDA-MB-468 triple-negative breast cancer (TNBC) cells in the presence of various concentrations of #02 or the SHP2 allosteric inhibitor SHP099 after 5 d in culture. Cell viability is shown as a percentage of DMSO vehicle control, representing mean±SD, and curve fitted as in B). D) Colony formation assay (11 d) of […] and MDA-MB-468 TNBC cells in the presence of various concentrations of #02 or the SHP2 allosteric inhibitor SHP099. E) Phospho-ERK1/2 (p-ERK1/2) immunoblot analysis from total cell lysates of MOLM-13 AML cells treated with #02 at the indicated concentrations, or with SHP2 allosteric inhibitor RMC-4550 (RMC, 1 μM) for 3 h or 24 h. The quantitation of p-ERK1/2 levels is shown as the percentage of the DMSO (vehicle) control and represents data from three independent experiments (mean±SD). F) Viability of AML patient-derived cells in the presence of 10 μM #02 or 10 μM SHP2 allosteric inhibitor RMC-4550 after 2 d, 4 d, or 6 d in culture. Cell viability is shown as a percentage of the DMSO vehicle control and represents the mean±SD (*p<0.05; **p<0.01; ****p<0.0001; unpaired test with Welch's correction) G) Viability of MOLM-13 cells and MOLM-13-Cas9-mCherry cells with SHP2 knockout (KO) in the presence of #01, #02, and allosteric inhibitor SHP099 at various concentrations (10-point dose-response). The percentages compared to the DMSO vehicle control were curve fitted using nonlinear regression (log[inhibitor] vs. normalized response, variable slope) and represent the mean±SD. SHP2 protein levels in regular MOLM-13 cells (WT), MOLM-13-Cas9-mCherry cells (Cas9), and MOLM-13-Cas9-mCherry cells with SHP2 KO (SHP2 KO) were evaluated by immunoblot analysis using SHP2 antibodies.
(§2) Viability of AML, esophageal carcinoma, and TF-1 cells was assessed using the ATP-depletion assay CellTiter-Glo® (Promega). Cells were harvested at 1×10^6/mL to 2×10^6 cells/mL with cell numbers determined by trypan blue using the Countess Cell counter (Thermo Scientific) and resuspended in culture media. […] Luminescence was read on a Tecan Spark® Multimode Microplate Reader and data analyzed using Graph Pad Prism software.

[2] = tested on: Kasumi-1 acute myeloid leukemia (AML) cells; assay: Cell viability assay (CellTiter-Glo), Kasumi-1; assay type: cell-based; conditions: Kasumi-1 cells, various concentrations, 3 d
Text: as §1, §2

[3] = molecular target: full-length SHP2 wild-type (SHP2-WT) (Homo sapiens (Human), UniProt Q06124); assay: DiFMUP fluorescence intensity phosphatase inhibition assay, SHP2-WT activated with IRS-1 peptide; assay type: biochemical; conditions: DiFMUP at Km (60 μM), IRS-1 peptide activated
Text: (§3) To test the synthesized compounds for their potential to inhibit SHP2 activity, a fluorescence intensity-based assay using 6,8-difluoro-4-methylumbelliferyl phosphate (DiFMUP) as the substrate was adapted for three recombinant SHP2 constructs: 1) the SHP2 catalytic domain (SHP2cat; residues 248-527), 2) the full-length SHP2-E76K oncogenic mutant, and 3) the full-length SHP2 wild-type (SHP2-WT). The recombinant SHP2 proteins were expressed and purified. A dually phosphorylated peptide derived from the insulin receptor substrate 1 (IRS-1) served as a surrogate binding protein and was used to activate SHP2-WT. […] Michaelis-Menten experiments to determine the DiFMUP Michaelis-Menten constant (Kmn) for each SHP2 construct were performed and yielded the following values: SHP2-WT, Km=60 μM; SHP2-E76K, Km=20 μM; SHP2cat, Km=20 μM. Relative maximum rates (Vmax) of the DiFMUP reactions were as follows: SHP2-WT, Vmax=871 AFU/min; SHP2-E76K, Vmax, =2730 AFU/min; SHP2cat, Vmax=2912 AFU/min. IC50 values for each compound were determined from initial rates in 10-point dose-response assays using DiFMUP at a concentration corresponding to its Km value for the respective SHP2 construct.
(§4) SHP2 inhibitors were tested at room temperature (RT) in a 384-well plate format standard phosphatase fluorescence intensity assay using DiFMUP (Invitrogen/Thermo Fisher Scientific, Carlsbad, CA) as a substrate and a total reaction volume of 25 μL. SHP2 inhibitors or vehicle (DMSO) were spotted in triplicate into a black Greiner FLUOTRAC™ 200 384-well microplate (#781076, Greiner) for a 10-point dose-response assay using an Echo®555 Liquid Handler (Labcyte, Inc., San Jose, CA). PTP working solutions were prepared at a 0.625 nM concentration (for a final concentration of 0.5 nM) in buffer containing 50 mM Bis-Tris pH 6.0, 50 mM NaCl, 5 mM DTT, and 0.01% Tween® 20. Prior to the assay, a dually phosphorylated insulin receptor substrate 1 (IRS-1) peptide [625 nM (500 nMfinal) (30)] was added to full-length WT SHP2 working solutions and incubated for 20 min. DiFMUP working solutions at 5× final concentration were prepared in 50 mM Bis-Tris pH 6.0, 50 mMNaCl, and 0.01% Tween 20. 20 μL of PTP working solution was dispensed into the microplate and incubated with inhibitor for 20 min at RT. […] The reaction was initiated by addition of 5 μL DiFMUP working solutions. Fluorescence intensity was measured in kinetic mode (every minute for 7 or 10 min) using a Tecan Spark® Multimode Microplate Reader (Tecan, Groedig, Austria) with an excitation wavelength of 360 nm and an emission wavelength of 460 nm. The initial rates were determined from the linear progression curves of the PTP reaction. The nonenzymatic hydrolysis of the substrate was corrected by using a control without addition of enzyme. IC50 values were calculated from the corrected initial rates by nonlinear regression using the program GraphPad Prism (GraphPad Software, Inc., San Diego, CA) Version 8. Dose-response inhibition assays of SHP2cat using the substrate OMFP were performed similarly as described above for DiFMUP. OMFP was used at a concentration corresponding to its Km value for SHP2cat (50 μM final). Fluorescence intensity was measured in kinetic mode (every minute for 10 min) using a Tecan Spark Multimode Microplate Reader with an excitation wavelength of 485 nm and an emission wavelength of 535 nm. Initial rates were determined and IC50 vales calculated as described above.

[4] = molecular target: full-length SHP2-E76K oncogenic mutant (Homo sapiens (Human), UniProt Q06124, E76K); assay: DiFMUP fluorescence intensity phosphatase inhibition assay, SHP2-E76K; assay type: biochemical
Text: as §3, §4

Sequence of full-length SHP2-E76K oncogenic mutant (Q06124 whole entry E76K): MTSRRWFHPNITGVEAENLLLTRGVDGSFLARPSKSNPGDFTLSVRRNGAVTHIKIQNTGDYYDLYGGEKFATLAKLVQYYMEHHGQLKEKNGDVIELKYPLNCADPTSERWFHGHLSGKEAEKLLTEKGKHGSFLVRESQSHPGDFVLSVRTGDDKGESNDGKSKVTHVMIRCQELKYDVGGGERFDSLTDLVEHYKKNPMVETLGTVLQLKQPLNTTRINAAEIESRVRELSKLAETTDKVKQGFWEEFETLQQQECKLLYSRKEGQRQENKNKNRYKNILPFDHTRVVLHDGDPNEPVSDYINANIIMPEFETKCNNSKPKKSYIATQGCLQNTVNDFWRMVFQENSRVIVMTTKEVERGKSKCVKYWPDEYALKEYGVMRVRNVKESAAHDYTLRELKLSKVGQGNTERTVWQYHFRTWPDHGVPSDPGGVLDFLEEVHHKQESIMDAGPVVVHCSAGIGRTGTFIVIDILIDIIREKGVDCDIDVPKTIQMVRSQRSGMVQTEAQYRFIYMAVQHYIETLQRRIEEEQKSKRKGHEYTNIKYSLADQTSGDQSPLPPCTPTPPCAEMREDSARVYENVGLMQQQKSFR
Sequence of full-length SHP2 wild-type (SHP2-WT) (Q06124 whole entry, other chains not shown, the tested form may be a part): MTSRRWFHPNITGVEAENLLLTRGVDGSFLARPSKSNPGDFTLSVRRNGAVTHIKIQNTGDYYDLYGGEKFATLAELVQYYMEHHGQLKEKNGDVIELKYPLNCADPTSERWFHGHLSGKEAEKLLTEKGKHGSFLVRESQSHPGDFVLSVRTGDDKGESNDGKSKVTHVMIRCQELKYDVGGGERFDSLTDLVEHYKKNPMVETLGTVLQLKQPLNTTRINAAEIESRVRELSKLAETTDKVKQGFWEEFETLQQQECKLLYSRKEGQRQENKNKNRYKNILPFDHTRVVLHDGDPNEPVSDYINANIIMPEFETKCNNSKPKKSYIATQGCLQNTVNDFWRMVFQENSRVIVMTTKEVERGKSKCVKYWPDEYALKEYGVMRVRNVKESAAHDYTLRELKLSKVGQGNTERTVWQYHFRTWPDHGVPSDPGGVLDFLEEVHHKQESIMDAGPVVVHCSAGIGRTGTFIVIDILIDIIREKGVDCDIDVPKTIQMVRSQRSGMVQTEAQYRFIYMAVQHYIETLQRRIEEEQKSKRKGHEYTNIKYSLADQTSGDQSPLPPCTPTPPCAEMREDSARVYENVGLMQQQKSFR

CC(C)NC(=O)c1cccc(-c2ccc(/C=C3\Sc4ccccc4C3=O)o2)c1 [#20, (Z)—N-Isopropyl-3-(5-((3-oxobenzo[b]thiophen-2(3H)-ylidene)methyl)furan-2-yl)benzamide]
effect on cancer cell growth [1]: no notable effects
effect on cancer cell growth [2]: no notable effects
IC50 [3]: ≥ 100 µM
IC50 ([4]; DiFMUP at Km (20 μM), 10-point dose-response, read-out: SHP2-E76K IC50): ≥ 100 µM
IC50 ([4]; inactive analog used as negative control, SHP2 construct not specified, read-out: SHP2 IC50): > 100 µM
